Entries after “also recorded” stand apart in the source; their conditions may differ.
What was measured:
human MNC = experiment: Human MNC proliferation under direct cell to cell contact with hUCB-MSC; assay type: cell-based; conditions: direct cell to cell interaction
Description: In the present experiment, the inventors investigated whether TLR and NLR agonists enhance the suppressive activity of hUCB-MSC against human […] proliferation. Based on the study that identified the importance of a direct interact ion between MSCs and lymphocytes in inhibition of lymphocyte proliferation by MSCs, the present inventors investigated whether MDP has an effect on the suppressive ability of hUCB-MSCs against MNC proliferation under the conditions where two cell groups are in contact with each other.

hUCB-MSCs [1] = experiment: IL-8 production in hUCB-MSCs after stimulation by receptor agonists (ELISA); assay type: cell-based, human; conditions: 24 hours with agonist
Method: After conforming the expression of the receptors of interest in hUCB-MSC in Example 2-1, the functionality of the receptors investigated by monitoring IL-8 production after stimulation by agonists. For this experiment, hUCB-MSCs were cultured at a density of 2×10^4 cells/well in KSFM medium supplemented with 2% FBS in a 96-well plate. After 24 hours of culturing, the cells were treated with the following agonists corresponding to each of the receptors, i.e., Pam3CSK4 (TLR2 agonist, Pam3), LPS (TLR4 agonist), Tri-DAP (NOD1 agonist, T-DAP), and MDP (NOD2 agonist). Then the samples were incubated for additional 24 hours. The supernatant of each culture was collected, centrifuged, and filtered through a 0.2 μm filter. Then, concentrations of IL-8 and PGE2 were measured using an ELISA kit (R&D Systems, Minneapolis, Minn., USA). Ultrapure LPS (E. coli O111:B4), Pam3CSK4, and Tri-DAP were purchased from Invivogen (San Diego, Calif., USA), MDP [Ac-(6-O-stearoyl)-muramyl-Ala-D-Glu-NH2; muramyl dipeptide] was purchased from Bachem (Bubendorf, Switzerland). Recombinant human Interferon-γ was purchased from Peprotech (Rockyhill, N.J., USA).

mouse splenocytes [2] = experiment: Xenogeneic mouse splenocyte proliferation in hUCB-MSC culture medium; assay type: cell-based
COX-2 = COX-2 expression in hUCB-MSCs (immunoblot); assay type: cell-based, human; conditions: 24 hours with agonist
Method: Cells were treated with 1 μg/mL Pam3CSK4 (TLR2 agonist), 1 μg/mL LPS (TLR4 agonist), 10 μg/mL Tri-DAP (NOD1 agonist) or 10 μg/mL MDP (NOD2 agonist) and cultured for 24 hours. Then, the collected cells were lysed using 1% Nonidet-P40 buffer containing 2 mM dithiothreitol and protease cocktail (Roche, US). The cell lysates were resolved by 12% SDS-PAGE, and transferred onto a nitrocellulose membrane. Then, immunostaining was performed using primary antibodies (COX-2, GAPDH (Santa Cruz biotechnology, Santa Cruz, Calif., USA)). Thereafter, immunostaining was performed using secondary antibodies, and proteins were detected using an enhanced chemiluminescence (ECL) reagent (Intron Biotechnology).
To investigate a correlation between COX-2 expression and the function of NOD2 and Rip2, cells were first treated with MDP and further treated with siNOD2 and siRip2. Then the COX-2 expression level was examined. Protein expression level was measured by using the method described in Example 5-2, and the method for siRNA treatment was the same as described in Example 3-3.

hUCB-MSCs [3] = experiment: TGF-β1 production by hUCB-MSCs; assay type: cell-based, human; conditions: 24 hours with agonist
Method: (§1) Soluble factors such as hepatocyte growth factor, TGF-β1, indoleamine 2,3 dioxygenase-1 (IDO-1), nitric oxide (NO), and prostaglandin E2 (PGE2) are the strong candidates for regulating immunosuppression by MSC. In order to determine whether TLR and NLR agonists induce the production of soluble factors including NO, PGE2 and TGF-β1 in hUCB-MSCs, the cells were cultured with Pam3CSK4, LPS, Tri-DAP, and MDP for 24 hours, and culture supernatants were collected. Secretion of the soluble factors was monitored by the method described in Examples 5-1 and 5-2.

hUCB-MSCs [4] = experiment: PGE2 secretion by hUCB-MSCs (ELISA); assay type: cell-based, human
Method: The hUCB-MSCs (2×10^4 cells/well) were cultured in MSC medium supplemented with 2% FBS in a 96-well plate. After 24 hrs of culturing, the cells were treated with 1 μg/mL Pam3CSK4 (TLR2 agonist), 1 μg/mL LPS (TLR4 agonist), 10 μg/mL Tri-DAP (NOD1 agonist) or 10 μg/mL MDP (NOD2 agonist) and cultured for additional 24 hours, then the culture supernatant of each sample was collected. After centrifugation, the culture supernatants were filtered through a 0.2 μm filter. Then, PGE2 concentration was measured using an ELISA kit (R&D Systems, Minneapolis, Minn., USA) following the manufacture's protocol.
To determine the sustainment time of the effects of MDP treatment, the amount of PEG2 produced was monitored after 1 day-long treatment of hUCB-MSCs with MDP. In this experiment, MDP was removed after 1 day of culturing by removing the culture medium and washing the cells with phosphate buffered saline (PBS) 5 times. Then the amount of PEG2 produced was measured. Meanwhile, cells were treated with MDP by the same method described in Example 5-1, and PGE2 concentration was measured. Also, in order to determine the effects of NOD2, Rip2 and COX-2 on PGE2 expression, the cells were treated with each of the control group of Example 3-3 i.e. siRNA (siCTL), siNOD2, siRip2 and COX-2 inhibitor called indomethacin (Sigma (St. Louis, Mo., USA).
as §1

hMNC [5] = experiment: IL-10 production by MNC cultured with UCB-MSC supernatant and ConA (ELISA); assay type: cell-based, human
Method: In order to determine the production level of IL-10, hUCB-MSCs (1×10^5 cells/well) were cultured in MSC medium supplemented with 2% FBS in a 24 well plate. About 24 hours later, the cells were treated with siNOD2 or indomethacin (Indo), and further cultured for 24 hours. Then the cells were washed five times, and fresh RPMI was added. After 5 days of culturing, UCB-MSC supernatant (UMS) was obtained. MNCs (1×10^6/well) were cultured with UMS and ConA (Sigma (St. Louis Mo., USA)). After 3 days of culturing, cell supernatant was collected, centrifuged, and filtered through a 0.2 μm filter. Then, IL-10 concentration was measured using an ELISA kit (R&D Systems, Minneapolis, Minn., USA).
PGE2 produced in bone marrow stromal cells is known to take an important role in IL-10 production by host macrophages (Nemeth, K., A. et al., Bone marrow stromal cells attenuate sepsis via prostaglandin E(2)-dependent reprogramming of host macrophages to increase their interleukin-10 production. Nat Med 15:42-49, 2009). MDP induces PGE2 production in hUCB-MSCs, and thus the present inventors examined whether IL-10 production in hMNCs is increased in the presence of MDP-UCM. The experiment was performed by the same method described in Example 5-6.

mouse splenocytes [6] = experiment: Mouse splenocyte proliferation cultured with PGE2; assay type: cell-based; conditions: PGE2 at a concentration of 10 ng/mL or higher
Method: (§2) In order to investigate the effect of PGE2 on mononuclear cell (MNC) proliferation, hMNC and mouse splenocytes were cultured with various concentrations of PGE2. The experiment was performed by the same method described in Example 5-5.

hMNC [7] = experiment: hMNC proliferation cultured with PGE2; assay type: cell-based, human; conditions: PGE2 at a concentration of 10 ng/mL or higher
Method: as §2

MNC = MNC proliferation in culture medium/supernatant of agonist-treated hUCB-MSC; assay type: cell-based, human; conditions: for MNC proliferation in culture medium of agonist-treated hUCB-MSC: hUCB-MSC #618, MNC cultured 3 days
Method: Soluble factors are also known to mediate immunosuppression by MSC. So the present inventors examined whether secretory factors generated by UCB-MSCs have an effect on human MNC proliferation. Culture medium (CM) was prepared, and hUCB-MSCs were co-cultured with the agonist for 24 hours. After washing, the cells were cultured fresh for additional […]. Then, a control group containing culture medium (CM) and sample of hUCB-MSCs treated with agonist (#613) were prepared, and MNCs were cultured in CM containing hUCB-MSCs for 3 days.
To determine whether MDP enhances the immunosuppressive activity of in UCB-MSC, the following experiment was performed. A control group containing culture medium (CM) of hUCB-MSC was prepared and the agonist-treated hUCB-MSCs were collected on the 5th day of culturing. Then, MNC was co-cultured in CM of hUCB-MSC for 3 days more, and after culturing, the level of MNC proliferation was monitored.
Additionally, to investigate the correlation among NOD2, Rip2 and MDP in MNC inhibition, the following experiment was conducted using siRNAs of […] and Rip2 and a control group (siCTL). When the cell density reached 60%, siRNAs were transfected into the cells. The siRIPK2 (M-003602-02) which is the siRNA of receptor-interacting serine-threonine kinase 2 (RIPK2 or receptor interacting kinase protein 2 (Rip2) which is the adaptor of […] and NOD2 and the type of kinase called RICK or CARDIAK (Bertin et al, 1999; Inohara et al, 1999; Ogura et al, 2001b)), siNOD2 (J-011338-07) which is the siRNA of NOD2, and a non-targeting control (siControl #1, D-001810-01) were purchased from Dharmacon (Chicago, Ill., USA). DharmaFECT1 (Dharmacon) was used as a transfection reagent, and siRNA was transfected at a concentration of 100 nmol/L. About 48 hours later, the medium was replaced with the fresh one, and the cells were treated with 10 μg/mL of MDP (NOD2 agonist) for 24 hours, except for a negative control (culture medium of MNC only) and a positive control (medium added with UCB-MSC supernatant (UMS) without agonist).
That is, a medium where MNC was cultured alone (i), and a medium added with UCB-MSC supernatant (UMS) without agonist (ii) were prepared as control groups, and a medium treated with MDP and UMS (iii), a medium treated with MDP, UMS, and control siRNA (siCTL) (iv), a medium treated with MDP, UMS and siNOD2 (v), and a medium treated with MDP, UMS, and siRip2 (vi) were prepared. Thereafter, MNC proliferation was measured by optical density at the wavelength of 450 nm.
In order to investigate the role of PGE2 in inhibition of MNC by hUCB-MSC, MNC proliferation was examined when treated with the MSC supernatant, MDP-treated MSC supernatant, and MDP and indomethacin (COX-2 inhibitor)-treated MSC supernatant. The experiment was performed by the same method described in Example 3.

hMNCs = experiment: Treg population (CD4, CD25, Foxp3) in hMNCs cultured with UCM, flow cytometry; assay type: cell-based, human
Method: Next, the present inventors investigated the effect of UCM on differentiation of hMNC into regulatory T cells (Treg). For this, hMNCs were cultured with UCM for 5 days, and co-expression of CD4, CD25, and Foxp3 in hMNCs was determined by Flow cytometry.

CCCCCCCCCCCCCCCCCC(=O)OCC1OC(O)C(NC(C)=O)C(OC(C)C(=O)NC(C)C(=O)NC(CCC(=O)O)C(N)=O)C1O [MDP, Ac-(6-O-stearoyl)-muramyl-Ala-D-Glu-NH2]
effect of agonist on suppressive activity of hUCB-MSCs against MNC proliferation (human MNC): did not affect the suppressive activity of hUCB-MSCs against MNC proliferation
IL-8 production (hUCB-MSCs [1]): increased IL-8 production in hUCB-MSCs in a dose-dependent manner
proliferation of xenogeneic mouse splenocytes in UCM (mouse splenocytes [2]): this inhibitory effect was enhanced by MDP stimulation
COX-2 expression (COX-2): enhanced COX-2 expression; also recorded: increased
TGF-β1 production (hUCB-MSCs [3]): enhanced only by addition of MDP
PGE2 production level after removal of MDP (hUCB-MSCs [4]; MDP removed after 1 day, 5th day of culturing): greater than that in the control group
PGE2 secretion (hUCB-MSCs [4]; hUCB-MSCs, 24 hours with agonist (MDP 10 μg/mL)): significantly enhanced PGE2 secretion; also recorded: enhanced only by addition of MDP
IL-10 production by MNC (hMNC [5]; MNC cultured 3 days with UCB-MSC supernatant and ConA): remarkably increased

CCCCC[C@H](O)/C=C/[C@H]1[C@H](O)CC(=O)[C@@H]1C/C=C\CCCC(=O)O [PGE2, (5Z, 11(alpha),13E,15S)-11,15-dihydroxy-9-oxo-prosta-5,13-dien-1-oic acid]
proliferation of mouse splenocytes (mouse splenocytes [6]): remarkably inhibited
proliferation of hMNC (hMNC [7]): remarkably inhibited

C[C@H](N)C(=O)N[C@H](CCC(=O)NC(CCCC(N)C(=O)O)C(=O)O)C(=O)O (stereo partly shown) [Tri-DAP, Tri-diaminopimelic Acid]
effect of agonist on suppressive activity of hUCB-MSCs against MNC proliferation (human MNC): did not affect the suppressive activity of hUCB-MSCs against MNC proliferation
IL-8 production (hUCB-MSCs [1]): increased IL-8 production in hUCB-MSCs in a dose-dependent manner
MNC proliferation in culture medium of agonist-treated hUCB-MSC (MNC): this effect was absent
MNC proliferation in culture medium of agonist-treated hUCB-MSC (MNC; listed as T-DAP): only slightly inhibited

COc1ccc2c(c1)c(CC(=O)O)c(C)n2C(=O)c1ccc(Cl)cc1 [indomethacin]
effect on the inhibition of MNC proliferation by MDP-treated MSC culture medium (MDP-UCM) (MNC; co-treatment or siRNA of hUCB-MSC): MNC proliferation rate similar to that of the negative control group; also recorded: counteracted
effect on MDP-enhanced PGE2 production (hUCB-MSCs [4]; hUCB-MSCs / MDP-UCM): MDP-enhanced PGE2 production was inhibited
effect on the increase in Treg population by MDP-UCM (hMNCs): reversed
effect on MDP-increased IL-10 production by MNC (hMNC [5]): IL-10 production was suppressed; also recorded: reversed

Pam3CSK4
effect of agonist on suppressive activity of hUCB-MSCs against MNC proliferation (human MNC): did not affect the suppressive activity of hUCB-MSCs against MNC proliferation
IL-8 production (hUCB-MSCs [1]): increased IL-8 production in hUCB-MSCs in a dose-dependent manner
MNC proliferation in culture medium of agonist-treated hUCB-MSC (MNC): this effect was absent
MNC proliferation in culture medium of agonist-treated hUCB-MSC (MNC; listed as Pam3): only slightly inhibited
